Source: publication PMC8426238, “Synthesis and preclinical evaluation of [^11C]MTP38 as a novel PET ligand for phosphodiesterase 7 in the brain” (European Journal of Nuclear Medicine and Molecular Imaging, 2021)
pIC50, pKi: −log10 of the molar value. Values joined by “and” are separate entries in the source; they are usually repeats but may differ in a detail not shown here. Equal values may be shown once.

Assays:
Dopamine D3 = target: T1, Dopamine D3 (Homo sapiens, UniProt P35462); assay: off-target screen panel; type: binding; settings: Human recombinant, [^3H]Spiperone
T1 construct: purchased Eurofins Panlabs Discovery Services (Taiwan)

Adrenergic β2 = target: T2, Adrenergic β2 (Homo sapiens, UniProt P07550); assay: off-target screen panel; type: binding; settings: Human recombinant, [^3H]CGP-12177
T2 construct: purchased Eurofins Panlabs Discovery Services (Taiwan)

Adrenergic α1B = target: T3, Adrenergic α1B (Rattus norvegicus, UniProt P15823); assay: off-target screen panel; type: binding; settings: Rat liver, [^3H]Prazosin
T3 construct: purchased Eurofins Panlabs Discovery Services (Taiwan)

Cannabinoid CB1 = target: T4, Cannabinoid CB1 (Homo sapiens, UniProt P21554); assay: off-target screen panel; type: binding; settings: Human recombinant, [^3H]SR141716A
T4 construct: purchased Eurofins Panlabs Discovery Services (Taiwan)

PDE7 = assay: In vitro autoradiography of monkey brain sections with [^11C]MTP38; type: binding, rhesus monkeys; settings: [^11C]MTP38 2 nM, unlabeled MTP38 10 μM
Description: In vitro autoradiography was performed using 20-μm-thick fresh-frozen brain sections derived from Sprague-Dawley rats and rhesus monkeys. The sections were preincubated for 10 min in 50 mM Tris-HCl buffer (pH 7.4) at room temperature. These samples were then incubated for 60 min at room temperature in fresh buffer containing [^11C]MTP38 (2 nM) with or without unlabeled MTP38 (10 μM), MTP-X (4 μM), or MT-3014 (40 nM). The concentrations of MTP-X and MT-3014 were more than 400-fold of reported IC50 values of these agents. After the incubation, the brain sections were immersed twice in cold buffer for 3 min, dipped in cold distilled water for 10 s, and dried with warm airflow. Then the sections were contacted with imaging plates (BAS-MS2025, Fujifilm, Tokyo, Japan) for 60 min. The imaging plates were scanned with an imaging plate reader (BAS5000, Fujifilm, Tokyo, Japan), and the images were analyzed with the MultiGuage software (ver. 3.0, Fujifilm, Tokyo, Japan).

Bradykinin B2 = target: T5, Bradykinin B2 (Homo sapiens, UniProt P30411); assay: off-target screen panel; type: binding; settings: Human recombinant, [^3H]Bradykinin
T5 construct: purchased Eurofins Panlabs Discovery Services (Taiwan)

PDE8A1 = target: T6, PDE8A1 (Homo sapiens, UniProt O60658); assay: PDE isozyme inhibition screen panel (Eurofins Panlabs); type: biochemical; settings: 1 μM of MTP38; human recombinant; read-out: Percent inhibition
T6 construct: purchased Eurofins Panlabs Discovery Services (Taiwan)
Description: (§1) In vitro inhibitory effects of MTP38 on 12 PDE isozymes (PDE1A, 2A, 3A, 4B1, 5A, 6, 7A, 7B, 8A1, 9A2, 10A2, and 11A4) were determined using a commercial screen panel at Eurofins Panlabs Discovery Services (Taiwan). The enzyme source was bovine retinal rod outer segments for PDE6 or human recombinants for the others. The inhibition percentage at 1 μM or half-maximal inhibitory concentration (IC50) value was calculated. All assays were conducted in duplicate. For IC50 determination, three independent runs were performed.

PDE7B = target: T7, PDE7B (Homo sapiens, UniProt Q9NP56); assay: as above; type: biochemical
T7 construct: purchased Eurofins Panlabs Discovery Services (Taiwan)
Description: as §1

PDE9A2 = target: T8, PDE9A2 (Homo sapiens, UniProt O76083); assay: as above; type: biochemical; settings: 1 μM of MTP38; human recombinant; read-out: Percent inhibition
T8 construct: purchased Eurofins Panlabs Discovery Services (Taiwan)
Description: as §1

PDE1A = target: T9, PDE1A (Homo sapiens, UniProt P54750); assay: as above; type: biochemical; settings: 1 μM of MTP38; human recombinant; read-out: Percent inhibition
T9 construct: purchased Eurofins Panlabs Discovery Services (Taiwan)
Description: as §1

PDE11A4 = target: T10, PDE11A4 (Homo sapiens, UniProt Q9HCR9); assay: as above; type: biochemical; settings: 1 μM of MTP38; human recombinant; read-out: Percent inhibition
T10 construct: purchased Eurofins Panlabs Discovery Services (Taiwan)
Description: as §1

PDE3A = target: T11, PDE3A (Homo sapiens, UniProt Q14432); assay: as above; type: biochemical; settings: 1 μM of MTP38; human recombinant; read-out: Percent inhibition
T11 construct: purchased Eurofins Panlabs Discovery Services (Taiwan)
Description: as §1

PDE2A = target: T12, PDE2A (Homo sapiens, UniProt O00408); assay: as above; type: biochemical; settings: human recombinant; geometric mean of three independent experiments
T12 construct: purchased Eurofins Panlabs Discovery Services (Taiwan)
Description: as §1

PDE7A = target: T13, PDE7A (Homo sapiens, UniProt Q13946); assay: as above; type: biochemical; settings: human recombinant; geometric mean of three independent experiments
T13 construct: purchased Eurofins Panlabs Discovery Services (Taiwan)
Description: as §1

PDE5A = target: T14, PDE5A (Homo sapiens, UniProt O76074); assay: as above; type: biochemical; settings: 1 μM of MTP38; human recombinant; read-out: Percent inhibition
T14 construct: purchased Eurofins Panlabs Discovery Services (Taiwan)
Description: as §1

PDE6 = target: T15, PDE6 (Bos taurus, UniProt P11541+P23439); assay: as above; type: biochemical; settings: 1 μM of MTP38; bovine retinal rod outer segments; read-out: Percent inhibition
T15 construct: The enzyme source was bovine retinal rod outer segments for PDE6; tissue Eurofins Panlabs Discovery Services (Taiwan); host or cells: bovine retinal rod outer segments
Description: as §1

Purinergic P2X = assay: off-target screen panel; type: binding; settings: Rabbit urinary bladder, [^3H]α, β-Methylene-ATP
Opiate κ (OP2, KOP) = target: T16, Opiate κ (OP2, KOP) (Homo sapiens, UniProt P41145); assay: off-target screen panel; type: binding; settings: Human recombinant, [^3H]Diprenorphine
T16 construct: purchased Eurofins Panlabs Discovery Services (Taiwan)

Endothelin ETB = target: T17, Endothelin ETB (Homo sapiens, UniProt P24530); assay: off-target screen panel; type: binding; settings: Human recombinant, [^125I]Endothelin-1
T17 construct: purchased Eurofins Panlabs Discovery Services (Taiwan)

Melatonin MT1 = target: T18, Melatonin MT1 (Homo sapiens, UniProt P48039); assay: off-target screen panel; type: binding; settings: Human recombinant, [^125I]2-Iodomelatonin
T18 construct: purchased Eurofins Panlabs Discovery Services (Taiwan)

Muscarinic M2 = target: T19, Muscarinic M2 (Homo sapiens, UniProt P08172); assay: off-target screen panel; type: binding; settings: Human recombinant, [^3H]N-Methylscopolamine
T19 construct: purchased Eurofins Panlabs Discovery Services (Taiwan)

Opiate μ (OP3, MOP) = target: T20, Opiate μ (OP3, MOP) (Homo sapiens, UniProt P35372); assay: off-target screen panel; type: binding; settings: Human recombinant, [^3H]Diprenorphine
T20 construct: purchased Eurofins Panlabs Discovery Services (Taiwan)

[1] = system: Calcium Channel L-Type, Dihydropyridine; assay: off-target screen panel; type: binding; settings: Rat cerebral cortex, [^3H]Nitrendipine
[2] = target: T21, Leukotriene, Cysteinyl CysLT1 (Homo sapiens, UniProt Q9Y271); assay: off-target screen panel; type: binding; settings: Human recombinant, [^3H]LTD4
T21 construct: purchased Eurofins Panlabs Discovery Services (Taiwan)

Potassium Channel [KATP] = assay: off-target screen panel; type: binding; settings: Hamster pancreatic HIT-T15 beta cells, [^3H]Glyburide
Histamine H1 = target: T22, Histamine H1 (Homo sapiens, UniProt P35367); assay: off-target screen panel; type: binding; settings: Human recombinant, [^3H]Pyrilamine
T22 construct: purchased Eurofins Panlabs Discovery Services (Taiwan)

Purinergic P2Y = assay: off-target screen panel; type: binding; settings: Rat brain, [^35S]ATP-αS
[3] = target: T23, Serotonin (5-Hydroxytryptamine) 5-HT3 (Homo sapiens, UniProt P46098); assay: off-target screen panel; type: binding; settings: Human recombinant, [^3H]GR-65630
T23 construct: purchased Eurofins Panlabs Discovery Services (Taiwan)
T23 sequence (P46098 24-478): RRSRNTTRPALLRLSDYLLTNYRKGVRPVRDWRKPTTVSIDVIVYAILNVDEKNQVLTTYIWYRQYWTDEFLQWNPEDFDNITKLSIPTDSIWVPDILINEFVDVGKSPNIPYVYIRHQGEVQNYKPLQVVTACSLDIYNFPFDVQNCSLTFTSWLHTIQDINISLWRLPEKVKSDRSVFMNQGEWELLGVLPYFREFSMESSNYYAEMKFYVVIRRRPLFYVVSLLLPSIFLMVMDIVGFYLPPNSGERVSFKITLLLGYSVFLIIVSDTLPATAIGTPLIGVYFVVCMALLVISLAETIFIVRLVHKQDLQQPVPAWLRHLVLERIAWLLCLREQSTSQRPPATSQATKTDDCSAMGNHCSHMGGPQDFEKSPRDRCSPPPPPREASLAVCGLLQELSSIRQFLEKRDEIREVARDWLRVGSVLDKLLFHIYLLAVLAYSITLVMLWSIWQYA

T12 sequence (O00408 whole entry): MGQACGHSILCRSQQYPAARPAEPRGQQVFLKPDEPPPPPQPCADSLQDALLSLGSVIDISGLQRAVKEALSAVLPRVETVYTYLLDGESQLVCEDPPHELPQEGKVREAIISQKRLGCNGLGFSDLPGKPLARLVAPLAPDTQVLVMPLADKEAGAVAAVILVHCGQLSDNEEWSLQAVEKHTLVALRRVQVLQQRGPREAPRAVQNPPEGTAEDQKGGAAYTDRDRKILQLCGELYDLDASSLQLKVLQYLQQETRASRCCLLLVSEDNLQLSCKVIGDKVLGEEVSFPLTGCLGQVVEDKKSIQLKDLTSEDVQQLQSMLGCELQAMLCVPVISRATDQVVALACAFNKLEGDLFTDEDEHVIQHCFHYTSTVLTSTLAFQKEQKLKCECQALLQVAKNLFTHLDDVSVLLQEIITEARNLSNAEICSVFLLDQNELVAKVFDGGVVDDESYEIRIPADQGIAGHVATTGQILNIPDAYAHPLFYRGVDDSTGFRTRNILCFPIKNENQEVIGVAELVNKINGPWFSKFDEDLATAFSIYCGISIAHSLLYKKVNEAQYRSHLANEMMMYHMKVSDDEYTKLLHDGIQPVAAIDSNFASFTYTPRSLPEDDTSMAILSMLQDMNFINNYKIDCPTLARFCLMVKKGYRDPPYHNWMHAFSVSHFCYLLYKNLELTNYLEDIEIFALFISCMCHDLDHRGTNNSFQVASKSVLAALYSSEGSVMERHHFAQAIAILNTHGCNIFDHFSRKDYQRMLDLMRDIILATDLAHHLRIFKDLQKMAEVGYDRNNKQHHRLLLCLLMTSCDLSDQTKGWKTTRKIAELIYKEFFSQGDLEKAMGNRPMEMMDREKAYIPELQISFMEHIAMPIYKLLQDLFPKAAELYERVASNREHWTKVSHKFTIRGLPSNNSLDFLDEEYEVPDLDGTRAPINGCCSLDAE
T7 sequence (Q9NP56 whole entry): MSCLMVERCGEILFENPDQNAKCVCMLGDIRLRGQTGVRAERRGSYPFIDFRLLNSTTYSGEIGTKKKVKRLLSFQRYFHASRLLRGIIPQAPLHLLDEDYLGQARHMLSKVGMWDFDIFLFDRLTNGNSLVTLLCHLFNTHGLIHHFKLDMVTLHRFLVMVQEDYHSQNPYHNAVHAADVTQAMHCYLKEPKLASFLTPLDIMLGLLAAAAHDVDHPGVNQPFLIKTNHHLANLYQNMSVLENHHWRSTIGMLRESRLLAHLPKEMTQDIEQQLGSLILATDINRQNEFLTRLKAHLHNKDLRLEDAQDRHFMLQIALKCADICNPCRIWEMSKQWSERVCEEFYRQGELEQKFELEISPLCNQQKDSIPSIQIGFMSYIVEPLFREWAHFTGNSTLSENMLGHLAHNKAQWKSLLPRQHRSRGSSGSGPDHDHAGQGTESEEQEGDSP
T3 sequence (P15823 whole entry): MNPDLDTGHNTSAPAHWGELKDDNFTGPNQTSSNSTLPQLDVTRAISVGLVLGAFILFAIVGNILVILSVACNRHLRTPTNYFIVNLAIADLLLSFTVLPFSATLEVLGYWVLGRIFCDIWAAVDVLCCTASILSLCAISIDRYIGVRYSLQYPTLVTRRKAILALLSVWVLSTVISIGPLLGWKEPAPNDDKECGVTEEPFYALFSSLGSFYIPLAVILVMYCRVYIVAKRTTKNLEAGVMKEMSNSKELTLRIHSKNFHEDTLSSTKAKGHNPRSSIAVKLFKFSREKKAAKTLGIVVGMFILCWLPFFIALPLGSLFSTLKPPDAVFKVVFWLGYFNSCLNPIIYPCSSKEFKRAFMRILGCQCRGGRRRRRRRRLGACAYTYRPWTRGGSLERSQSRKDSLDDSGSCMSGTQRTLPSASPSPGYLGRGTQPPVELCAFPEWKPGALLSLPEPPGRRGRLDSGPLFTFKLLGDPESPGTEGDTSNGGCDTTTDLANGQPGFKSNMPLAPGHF
T15 sequence (P11541 2-856 limits assumed): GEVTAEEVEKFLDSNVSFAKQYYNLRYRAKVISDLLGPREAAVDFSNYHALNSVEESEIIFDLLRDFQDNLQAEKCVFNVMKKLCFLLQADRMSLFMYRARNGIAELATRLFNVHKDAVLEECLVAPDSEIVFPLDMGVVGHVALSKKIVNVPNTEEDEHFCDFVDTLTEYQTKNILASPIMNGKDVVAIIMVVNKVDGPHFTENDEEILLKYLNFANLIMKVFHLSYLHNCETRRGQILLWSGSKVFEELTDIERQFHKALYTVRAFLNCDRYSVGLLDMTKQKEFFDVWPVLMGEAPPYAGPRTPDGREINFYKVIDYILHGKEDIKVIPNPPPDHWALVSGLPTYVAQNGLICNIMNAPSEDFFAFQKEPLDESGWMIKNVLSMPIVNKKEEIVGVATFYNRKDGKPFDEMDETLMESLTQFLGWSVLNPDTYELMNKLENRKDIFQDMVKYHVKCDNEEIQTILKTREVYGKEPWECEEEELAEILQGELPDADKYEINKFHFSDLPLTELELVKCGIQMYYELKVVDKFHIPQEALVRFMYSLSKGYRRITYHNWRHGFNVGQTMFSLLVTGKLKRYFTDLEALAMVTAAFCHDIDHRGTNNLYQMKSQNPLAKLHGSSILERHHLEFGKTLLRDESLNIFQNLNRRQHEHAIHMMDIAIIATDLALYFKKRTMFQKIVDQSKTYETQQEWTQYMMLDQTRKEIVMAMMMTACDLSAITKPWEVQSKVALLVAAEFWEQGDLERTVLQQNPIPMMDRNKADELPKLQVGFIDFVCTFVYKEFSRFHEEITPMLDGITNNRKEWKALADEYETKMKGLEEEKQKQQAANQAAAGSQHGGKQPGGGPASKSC
T15 sequence (P23439 2-850 limits assumed): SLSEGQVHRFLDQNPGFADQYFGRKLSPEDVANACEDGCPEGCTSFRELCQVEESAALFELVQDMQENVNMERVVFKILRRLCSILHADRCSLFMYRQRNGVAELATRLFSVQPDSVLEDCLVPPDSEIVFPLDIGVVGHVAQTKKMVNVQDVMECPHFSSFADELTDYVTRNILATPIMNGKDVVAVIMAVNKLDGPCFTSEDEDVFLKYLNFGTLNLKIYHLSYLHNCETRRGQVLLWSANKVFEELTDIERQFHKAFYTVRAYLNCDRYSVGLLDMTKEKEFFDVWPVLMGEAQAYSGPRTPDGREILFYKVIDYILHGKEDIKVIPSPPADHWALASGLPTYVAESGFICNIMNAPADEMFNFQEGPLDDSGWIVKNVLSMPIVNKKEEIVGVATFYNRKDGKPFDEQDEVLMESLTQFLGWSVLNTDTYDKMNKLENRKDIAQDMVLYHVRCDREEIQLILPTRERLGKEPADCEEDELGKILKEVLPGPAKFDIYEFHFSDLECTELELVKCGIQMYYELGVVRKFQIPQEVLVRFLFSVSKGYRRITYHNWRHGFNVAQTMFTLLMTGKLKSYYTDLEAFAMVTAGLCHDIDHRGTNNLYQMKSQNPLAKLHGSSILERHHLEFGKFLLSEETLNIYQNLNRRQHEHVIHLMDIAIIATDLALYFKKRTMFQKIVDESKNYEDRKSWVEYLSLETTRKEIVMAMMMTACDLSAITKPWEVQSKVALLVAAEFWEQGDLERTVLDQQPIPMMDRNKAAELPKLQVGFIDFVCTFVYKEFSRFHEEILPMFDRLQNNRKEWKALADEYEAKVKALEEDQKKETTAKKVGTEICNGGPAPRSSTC
T2 sequence (P07550 whole entry): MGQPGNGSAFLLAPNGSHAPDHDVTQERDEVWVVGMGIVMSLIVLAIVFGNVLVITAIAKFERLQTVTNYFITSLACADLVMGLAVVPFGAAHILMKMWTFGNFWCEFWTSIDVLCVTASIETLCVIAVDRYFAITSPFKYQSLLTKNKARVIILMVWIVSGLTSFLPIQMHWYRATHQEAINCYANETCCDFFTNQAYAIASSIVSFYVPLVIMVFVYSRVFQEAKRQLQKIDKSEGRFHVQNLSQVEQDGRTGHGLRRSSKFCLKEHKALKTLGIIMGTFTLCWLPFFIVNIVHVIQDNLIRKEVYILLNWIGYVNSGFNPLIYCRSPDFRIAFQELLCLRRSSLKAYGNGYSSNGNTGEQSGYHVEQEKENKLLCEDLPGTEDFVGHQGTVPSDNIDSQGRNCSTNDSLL
T4 sequence (P21554 whole entry): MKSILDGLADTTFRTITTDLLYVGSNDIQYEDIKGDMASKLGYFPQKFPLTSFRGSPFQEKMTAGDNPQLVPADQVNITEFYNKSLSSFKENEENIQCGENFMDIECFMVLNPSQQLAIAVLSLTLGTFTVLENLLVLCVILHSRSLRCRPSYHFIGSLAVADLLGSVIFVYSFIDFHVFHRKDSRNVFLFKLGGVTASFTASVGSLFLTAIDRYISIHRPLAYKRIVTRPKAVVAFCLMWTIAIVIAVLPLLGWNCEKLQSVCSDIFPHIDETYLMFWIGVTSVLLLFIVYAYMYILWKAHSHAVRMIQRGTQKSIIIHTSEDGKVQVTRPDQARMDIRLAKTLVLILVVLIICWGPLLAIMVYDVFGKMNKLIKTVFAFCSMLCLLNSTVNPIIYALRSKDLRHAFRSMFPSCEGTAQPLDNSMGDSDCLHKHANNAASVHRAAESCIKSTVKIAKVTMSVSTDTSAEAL

C[C@@H]1CC[C@H](C)N(c2nnc3c(N)ncc(C#N)n23)C1 (relative stereo) [MTP38, 8-amino-3-(2S*,5R*-dimethyl-1-piperidyl)-[1,2,4]triazolo[4,3-a]pyrazine-5-carbonitrile]
inhibition at 1 µM (Dopamine D3): 0%
inhibition at 1 µM (Adrenergic β2): -14%
inhibition at 1 µM (Adrenergic α1B): -3%
inhibition at 1 µM (Cannabinoid CB1): -6%
effect of blocker on striatal radioactivity of [^11C]MTP38 (PDE7): reduced the striatal radioactivity
inhibition at 1 µM (Bradykinin B2): 2%
inhibition at 1 µM (PDE8A1): < 50%
pKi (PDE7B; from IC50 1.21 nM, [S] 100 nM, Km 30–70 nM, read-out: Ki estimated by Cheng-Prusoff equation): 9.30 to 9.55
pIC50 (PDE7B; human recombinant, geometric mean of three independent experiments): 8.92
inhibition at 1 µM (PDE9A2): < 50%
inhibition at 1 µM (PDE1A): < 50%
inhibition at 1 µM (PDE11A4): < 50%
inhibition at 1 µM (PDE3A): < 50%
pIC50 (PDE2A): < 7.00 and 6.94
pIC50 (PDE7A): 8.01
inhibition at 1 µM (PDE5A): < 50%
inhibition at 1 µM (PDE6): < 50%
Inhibition (%) at 1 μM (Purinergic P2X): -3%
inhibition at 1 µM (Opiate κ (OP2, KOP)): 9%
inhibition at 1 µM (Endothelin ETB): 3%
inhibition at 1 µM (Melatonin MT1): 7%
inhibition at 1 µM (Muscarinic M2): -9%
inhibition at 1 µM (Opiate μ (OP3, MOP)): 4%
Inhibition (%) at 1 μM [1]: 7%
inhibition at 1 µM [2]: 4%
Inhibition (%) at 1 μM (Potassium Channel [KATP]): 5%
inhibition at 1 µM (Histamine H1): -20%
Inhibition (%) at 1 μM (Purinergic P2Y): -20%
inhibition at 1 µM [3]: -11%
